Values of other authors, collected in patent US8715728B2, “Extended release pellet formulation containing pramipexole or a pharmaceutically acceptable salt thereof” (Boehringer Ingelheim International GmbH, priority 2004, dated 2014).
Counter-ions that a name gives are not always drawn.

Experiments:
[1] = in vivo
[2] = not given; remark: listed apart in the source

SMILES | kinetics [1] | stability in solution (in solution, light) | stability in the solid state (solid state) | solubility in buffer media ([2]; between pH 2 and pH 7.4) | Water solubility ([2]; water)
CCCN[C@H]1CCc2nc(N)sc2C1 [Pramipexole, (S)-2-amino-4,5,6,7-tetrahydro-6-(propylamino)benzothiazole] | linear kinetics | light sensitive | very stable | – | –
CCCN[C@H]1CCc2nc(N)sc2C1 [Pramipexole dihydrochloride monohydrate, pramipexole dihydrochloride monohydrate] | – | – | – | above 10 mg/ml | more than 20 mg/mL
